# Test results published in US6958318B2, “Recombinant bacterial cells for delivery of PNP to tumor cells” (The UAB Research Foundation, priority 1993, dated 2005).
# Several values for one entry are separate records, joined by “and”; a condition that tells them apart may be missing. Equal values may be shown once. Entries after “also recorded” stand apart in the source; their conditions may differ. Read-outs that look alike come from different tables or passages of the source.
# What was measured:
# [1] = test system: T-84 colon carcinoma cells transfected with E. coli PNP; test: Toxicity of MeP-dR in T-84 cells transfected with E. coli PNP; type: cell-based, human
# Description: Cationic liposome mediated gene transfer was used to transfect T-84 colon carcinoma cells. Briefly, 6 μg of plasmid containing PNP or LacZ was added to 10 μg of a 1:1 molar mixture of DOTMA/DOPE (LipofectinJ (GIBCO/BRL, Gaithersburg, Md.)) in a final volume of 200 μl DMEM/FI2 serum free medium. After a 10 minute incubation at room temperature, the DNA-lipid mixture was added to 500 μl serum free medium and was used to cover the cells within a tray. Four hours later, transfection medium was removed from each well and 2 ml DMEM/FI2 with 10% fetal bovine serum was added.
# Forty-eight hours following transfection, fresh medium was added and MeP-dR (1 mg/ml in PBS) was added directly to the cells to achieve the desired final concentrations. Cell viability was measured 5 days following treatment as described for the MeP-dR toxicity study.
# After 5 days the cells were removed from each well and the number of dye excluding cells were determined with the aid of a hemacytometer. 30-50% toxicity due to the DOTMA-DOPE transfection protocol is acceptable for cationic liposome mediated gene transfer to T-84 in vitro when performed under optimal conditions.
# In an additional experiment, approximately 2×10^5 cells per well were transfected as above using 6 μg of plasmid containing E. coli PNP cDNA. Two days after transfection, varying concentrations of MeP-dR (0, 2, 4, 20, 40 and 160 μM) were added to the wells, and after 5 days the dye excluding cells were counted with the aid of a hemacytometer.
# An experiment was also performed in triplicate in which 2×10^5 cells per well were transfected with LacZ or PNP using the protocol described for transfection. Two days after transfection, 16 μM MeP-dR was added to one set of the cultures transfected with PNP and one set of the cultures transfected with LacZ.
# [2] = target: T1, E. coli PNP (Escherichia coli, UniProt P0ABP8); type: biochemical
# [3] = test system: D54 parental tumor cells (D54-wt); test: Wild-type D54 glioma tumors in nude mice; type: in vivo
# Description: (§1) Female athymic nude mice (nu/nu) were implanted sc with 2×10^7 cells of either D54 parental tumor cells (D54-wt) or D54 tumor cells that had been transduced with the E. coli PNP (D54-PNP). After the tumors had grown to approximately 150 mg, they were treated ip with either vehicle or 67 mg/kg of MeP-dR (IP) once a day for 3 days (days 6, 7 and 8 after implantation). The tumor sizes were measured twice a week after treatment.
# (§2) A confirmation experiment was set up exactly as described above, except that animals were treated with two doses of MeP-dR (45 and 67 mg/kg) (FIGS. 10 and 11). The results of this experiment were similar (Table V). There were 8 of 10 complete regressions in mice bearing the D54-PNP tumors that were treated with 67 mg/kg of MeP-dR. In 4 mice the tumors subsequently returned and grew. There were still 4 of 10 tumor-free survivors 60 days after the treatment had stopped. […] There were 2 of 10 complete regressions and 3 partial responses. […] The delay in the time required to double twice due to treatment with MeP-dR was 5 to 6 days in the non-transduced tumors and greater than 24 days in transduced tumors. In this experiment, the growth rate of the D54-PNP tumors was considerably slower than it was in the first experiment. There was no change in the growth rate of the D54-wt tumors. The reason for the slow growth rate of the D54-PNP tumors in this experiment is not known. […] (In other words, if a tumor was too small to measure, it was not included in the average size). This means that the overall tumor regressions in the D54 PNP group are actually much more pronounced than they appear in FIGS. 8-11.
# [4] = test system: D54-PNP tumors; test: E. coli PNP-transduced D54 glioma tumors in nude mice; type: in vivo
# Description: as §1, §2
# [5] = target: T1, E. coli PNP; type: biochemical; remark: listed apart in the source
# [6] = test system: Lewis Lung tumors; test: Lewis Lung tumors treated with recombinant E. coli and MeP-dR
# [7] = 67 mg/kg, IP Qd×3d plus recombinant E. coli
# T1 sequence (P0ABP8 2-239): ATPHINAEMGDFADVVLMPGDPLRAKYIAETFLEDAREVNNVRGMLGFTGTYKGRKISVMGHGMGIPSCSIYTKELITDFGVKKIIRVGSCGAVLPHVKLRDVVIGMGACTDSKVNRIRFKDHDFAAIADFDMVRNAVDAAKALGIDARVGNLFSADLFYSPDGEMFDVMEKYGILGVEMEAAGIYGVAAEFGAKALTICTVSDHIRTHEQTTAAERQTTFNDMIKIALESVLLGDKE
smiles,measurement,setting,value
"Cc1ncnc2c1ncn2[C@H]1C[C@H](O)[C@@H](CO)O1 [MeP-dR, 9-(β-D-2-deoxyerythropentofuranosyl)-6-methylpurine]",Inhibition of cell growth,"[1]; 4 μM, 5 days, 6 μg PNP plasmid",greater than 80%
same,Killing after PNP transfection,[1]; 16 μM,Substantial killing
same,Killing of cells transfected with E. coli PNP,"[1]; 160 μM, 5 days",killed virtually all of the cells
same,MeP-dR converted to MeP,"[2]; extracts of E. coli PNP transfected T-84 cells, 100 μM, 24 hours, 25° C.",Approximately 24%
same,MeP-dR converted to MeP,[2]; extracts of LacZ transfected T-84 cells,no conversion occurred
same,"Effect on wild-type D54 tumors, in words",[3]; 45 or 67 mg/kg,little effect; also recorded: no partial of complete remissions; also recorded: did not affect parental D54 tumor cell growth
same,Days Delay (T-C),"[3]; Table IV, 67 mg/kg",7 days
same,Doubling time,"[3]; Table IV, 67 mg/kg",21
same,Nonspecific Deaths/Total,"[3]; Table IV, 67 mg/kg",1/6
same,Regressions Partial,"[3]; Table IV, 67 mg/kg",0/6
same,Tumor-free Survival,"[3]; Table IV, 67 mg/kg",0/6
same,Regressions Complete,"[3]; Table IV, 67 mg/kg IP once a day for three days",0/6
same,Days Delay (T-C),"[3]; Table V, 45 mg/kg",5 days
same,Doubling time,"[3]; Table V, 45 mg/kg",17
same,Nonspecific Deaths/Total,"[3]; Table V, 45 mg/kg",0/10
same,Regressions Partial,"[3]; Table V, 45 mg/kg",0/10
same,Tumor-free Survival,"[3]; Table V, 45 mg/kg",0/10
same,Regressions Complete,"[3]; Table V, 45 mg/kg IP once a day for three days",0/10
same,Days Delay (T-C),"[3]; Table V, 67 mg/kg",6 days
same,Doubling time,"[3]; Table V, 67 mg/kg",18
same,Nonspecific Deaths/Total,"[3]; Table V, 67 mg/kg",0/10
same,Regressions Partial,"[3]; Table V, 67 mg/kg",0/10
same,Tumor-free Survival,"[3]; Table V, 67 mg/kg",0/10
same,Regressions Complete,"[3]; Table V, 67 mg/kg IP once a day for three days",0/10
same,Loss of weight in treated animals,"[4]; 67 mg/kg, regardless of tumor implanted",little or no loss of weight
same,"Effect on E. coli PNP expressing D54 tumors, in words",[4]; 45 or 67 mg/kg,caused regression
same,Days Delay (T-C),"[4]; Table IV, 67 mg/kg",>39 days
same,Doubling time,"[4]; Table IV, 67 mg/kg",>56
same,Nonspecific Deaths/Total,"[4]; Table IV, 67 mg/kg",0/6
same,Regressions Partial,"[4]; Table IV, 67 mg/kg",0/6
same,Regressions Complete,"[4]; Table IV, 67 mg/kg IP once a day for three days, 67 mg/kg",6 of 6 and 6/6
same,Tumor-free Survival,"[4]; Table IV, 67 mg/kg, followed 65 days, 67 mg/kg",Four and 4/6
same,Days Delay (T-C),"[4]; Table V, 45 mg/kg",>24 days
same,Doubling time,"[4]; Table V, 45 mg/kg",>54
same,Nonspecific Deaths/Total,"[4]; Table V, 45 mg/kg",0/10
same,Regressions Partial,"[4]; Table V, 45 mg/kg",3 and 3/10
same,Tumor-free Survival,"[4]; Table V, 45 mg/kg",no tumor-free survivors and 0/10
same,Regressions Complete,"[4]; Table V, 45 mg/kg IP once a day for three days, 45 mg/kg",2 of 10 and 2/10
same,Days Delay (T-C),"[4]; Table V, 67 mg/kg",>25 days
same,Doubling time,"[4]; Table V, 67 mg/kg",>55
same,Nonspecific Deaths/Total,"[4]; Table V, 67 mg/kg",1/10
same,Regressions Partial,"[4]; Table V, 67 mg/kg",1/10
same,Regressions Complete,"[4]; Table V, 67 mg/kg IP once a day for three days, 67 mg/kg",8 of 10 and 8/10
same,Tumor-free Survival,"[4]; Table V, 67 mg/kg, 60 days after treatment stopped, 67 mg/kg",4 of 10 and 4/10
same,Activity against D54 glioma tumors expressing the E. coli PNP gene,[4]; previous studies,good activity
same,Delay in the time required to double twice,"[4]; transduced tumors, 45 and 67 mg/kg",greater than 24 days
same,Background activity in cell free extracts,[5]; non-transduced 16/C and B16 cells,0
same,E. coli PNP activity in cell free extracts,"[5]; transduced 16/C cells, n=6",10.7 nmoles MeP-dR converted/mg cell protein/hr
same,E. coli PNP activity in cell free extracts,"[5]; transduced B16 cells, n=2",2.4 nmoles MeP-dR converted/mg cell protein/hour
same,Delay of tumor growth,[6]; 33.5 mg/kg once a day for three days plus recombinant E. coli,approximately 42%
same,Host toxicity,[6]; 33.5 mg/kg plus recombinant E. coli,without host toxicity
same,Anti-tumor effect,[6]; [7],anti-tumor effects were again observed
same,Host toxicity,[6]; [7],"toxic, with several deaths"
